From patent US20230310409A1, “TREATING RHEUMATOID ARTHRITIS” (BRISTOL-MYERS SQUIBB COMPANY, priority 2020, published 2023)

How the values were obtained:
Assay type in all cases: in vivo, mice (male DBA/1)
[1] = test system: collagen-induced arthritis model; experiment: Collagen-induced arthritis in mice, clinical score (arthritic index); conditions: for disease score: mouse CIA, Compound (I) 0.25 mg/kg oral once daily from day 21, mEnbrel 10 mg/kg i.p. twice per week from primary immunization, combination 0.25+10 mg/kg
Experimental: Male DBA/1 mice (9-11 weeks of age, Harlan) were primed with bovine type II collagen (Chondrex #20021) in adjuvant (Sigma adjuvant system, Sigma Aldrich #S6322) at the base of tail on day 1 and on day 21. Mice were randomized into 7 groups based on body weight and assigned as either vehicle (10% ethanol; 45% PEG 300; 5% pluronic F-68; 40% 20 mM citrate buffer); Compound (I) at 0.25 and 2.5 mg/kg or mEnbrel (mouse Enbrel) at 10 mg/kg or combination of Compound (I) with mEnbrel at 0.25+10 mg/kg and 2.5+10 mg/kg or mCTLA4 (mouse CTLA4-Ig) (as a reference compound) at 3 mg/kg dose level. Compound (I) was administered from day 21 by oral gavage once daily whereas mEnbrel and mCTLA4 were administered from day of primary immunization, twice per week by intraperitoneal injection. Disease activity was monitored and scored twice per week using standard criteria (0: normal; 1: mild, but definite redness and swelling of the ankle or wrist, or apparent redness and swelling limited to individual digits regardless of number of affected digits; 2: moderate redness and swelling of ankle or wrist; 3: severe redness and swelling of the entire paw including digits; 4: maximally inflamed limb with involvement of multiple joints).
Compound (I) was tested in the semi-therapeutic mode of treatment in mouse collagen-induced arthritis model. Dosing initiated after the antigen boost (from day 21) and continued up to day 45.
Compound (I) was tested in combination with the TNFα blocking agent mEnbrel in the collagen-induced arthritis model where dosing of Compound (I) was initiated after the antigen boost whereas mEnbrel was administered from the day of primary immunization.
Mice were treated with respective treatment. During the entire study course (A) and at the time of termination (B) disease was assessed by measuring the clinical score (arthritic index). Data are from one experiment with 10 mice per group. ***P<0.0001 versus vehicle by one-way ANOVA with a Dunnett test.

IL-6 = experiment: Plasma IL-6 at termination in collagen-induced arthritis model; conditions: Compound (I) alone, 0.25 and 2.5 mg/kg
Experimental: Male DBA/1 mice (9-11 weeks of age, Harlan) were primed with bovine type II collagen (Chondrex #20021) in adjuvant (Sigma adjuvant system, Sigma Aldrich #S6322) at the base of tail on day 1 and on day 21. Mice were randomized into 7 groups based on body weight and assigned as either vehicle (10% ethanol; 45% PEG 300; 5% pluronic F-68; 40% 20 mM citrate buffer); Compound (I) at 0.25 and 2.5 mg/kg or mEnbrel (mouse Enbrel) at 10 mg/kg or combination of Compound (I) with mEnbrel at 0.25+10 mg/kg and 2.5+10 mg/kg or mCTLA4 (mouse CTLA4-Ig) (as a reference compound) at 3 mg/kg dose level. Compound (I) was administered from day 21 by oral gavage once daily whereas mEnbrel and mCTLA4 were administered from day of primary immunization, twice per week by intraperitoneal injection. Disease activity was monitored and scored twice per week using standard criteria (0: normal; 1: mild, but definite redness and swelling of the ankle or wrist, or apparent redness and swelling limited to individual digits regardless of number of affected digits; 2: moderate redness and swelling of ankle or wrist; 3: severe redness and swelling of the entire paw including digits; 4: maximally inflamed limb with involvement of multiple joints). […] At the time of termination (A) serum anti-collagen antibody titer and (B) plasma IL-6 was assessed. […]

anti-collagen antibodies = experiment: Serum anti-collagen antibody titer at termination in collagen-induced arthritis model; conditions: Compound (I) alone, 0.25 and 2.5 mg/kg
Experimental: (§1) Male DBA/1 mice (9-11 weeks of age, Harlan) were primed with bovine type II collagen (Chondrex #20021) in adjuvant (Sigma adjuvant system, Sigma Aldrich #S6322) at the base of tail on day 1 and on day 21. Mice were randomized into 7 groups based on body weight and assigned as either vehicle (10% ethanol; 45% PEG 300; 5% pluronic F-68; 40% 20 mM citrate buffer); Compound (I) at 0.25 and 2.5 mg/kg or mEnbrel (mouse Enbrel) at 10 mg/kg or combination of Compound (I) with mEnbrel at 0.25+10 mg/kg and 2.5+10 mg/kg or mCTLA4 (mouse CTLA4-Ig) (as a reference compound) at 3 mg/kg dose level. […] Disease activity was monitored and scored twice per week using standard criteria (0: normal; 1: mild, but definite redness and swelling of the ankle or wrist, or apparent redness and swelling limited to individual digits regardless of number of affected digits; 2: moderate redness and swelling of ankle or wrist; 3: severe redness and swelling of the entire paw including digits; 4: maximally inflamed limb with involvement of multiple joints). […]
FIG. 2: Inhibition of circulating markers by Compound (I) alone and in combination with mEnbrel. […] At the time of termination (A) serum anti-collagen antibody titer and (B) plasma IL-6 was assessed. […]

[2] = Pharmacokinetics of Compound (I) in CIA model, whole blood (DBS) drug concentration by LCMS
Experimental: as §1
FIG. 3: Pharmacokinetic analysis of Compound (I) in CIA model of arthritis. […] Following 19 days of dosing, whole blood was drawn at different time points and DBS drug concentrations were measured by LCMS. […]

Molecule | arthritic score at the termination of the study ([1]; Compound (I) alone, 0.25 and 2.5 mg/kg oral once daily from day 21) | disease score [1] | inhibition of clinical signs of disease, earliest time ([1]; semi-therapeutic mode, dosing from day 21 up to day 45, 0.25 and 2.5 mg/kg oral once daily) | plasma IL-6 (IL-6) | serum anti-collagen-antibody titer (anti-collagen antibodies) | whole blood drug concentration ([2]; 0.25 and 2.5 mg/kg oral, after 19 days of dosing, 1-24 h post dose) | whole blood concentration of Compound (I) in the presence of mEnbrel ([2]; co-treatment with mEnbrel 10 mg/kg)
Cc1c(-c2[nH]c3ccc(C4CCN(CC(N)=O)CC4)cc3c2C(C)C)cn2ncnc2c1C [Compound (I), 2-(4-(2-(7,8-dimethyl-[1,2,4]triazolo[1,5-a]pyridin-6-yl)-3-isopropyl-1H-indol-5-yl)piperidin-1-yl)acetamide] | Significant dose dependent suppression | 82 % of control | 7 days post dosing | dose dependent reduction | dose dependent reduction | dose dependent increase | not altered
mEnbrel: fully mouse version of Enbrel: mouse TNFR1B extracellular domain (Val-23 to Gly-258) fused to mouse IgG2A, TNFα blocking agent (protein, listed as Mus musculus, SIGNAL (1)..(17) Osteonectin signal sequence; (18)..(253) Mouse TNFR1B (V23 - G258); (254)..(486) Mouse IgG2a) MRAWIFFLLCLAGRALAVPAQVVLTPYKPEPGYECQISQEYYDRKAQMCCAKCPPGQYVKHFCNKTSDTVCADCEASMYTQVWNQFRTCLSCSSSCTTDQVEIRACTKQQNRVCACEAGRYCALKTHSGSCRQCMRLSKCGPGFGVASSRAPNGNVLCKACAPGTFSDTTSSTDVCRPHRICSILAIPGNASTDAVCAPESPTLSAIPRTLYVSQPEPTRSQPLDQEPGPSQTPSILTSLGSTPIIEQSTKGGEPRGPTIKPCPPCKCPAPNLLGGPSVFIFPPKIKDVLMISLSPIVTCVVVDVSEDDPDVQISWFVNNVEVHTAQTQTHREDYNSTLRVVSALPIQHQDWMSGKEFKCKVNNKDLPAPIERTISKPKGSVRAPQVYVLPPPEEEMTKKQVTLTCMVTDFMPEDIYVEWTNNGKTELNYKNTEPVLDSDGSYFMYSKLRVEKKNWVERNSYSCSVVHEGLHNHHTTKSFSRTPGK | – | 56 % of control | – | – | – | – | –
